{"source": "ChEMBL document CHEMBL4007434", "about": "“Indazole-Based Covalent Inhibitors To Target Drug-Resistant Epidermal Growth Factor Receptor” (J Med Chem, 2017)", "note": "pEC50, pIC50: −log10 of the molar value."}
{"biological_target": "Epidermal growth factor receptor (Homo sapiens, UniProt P00533, L858R/T790M)", "sequence (P00533 25-1210 T790M/L858R limits assumed)": "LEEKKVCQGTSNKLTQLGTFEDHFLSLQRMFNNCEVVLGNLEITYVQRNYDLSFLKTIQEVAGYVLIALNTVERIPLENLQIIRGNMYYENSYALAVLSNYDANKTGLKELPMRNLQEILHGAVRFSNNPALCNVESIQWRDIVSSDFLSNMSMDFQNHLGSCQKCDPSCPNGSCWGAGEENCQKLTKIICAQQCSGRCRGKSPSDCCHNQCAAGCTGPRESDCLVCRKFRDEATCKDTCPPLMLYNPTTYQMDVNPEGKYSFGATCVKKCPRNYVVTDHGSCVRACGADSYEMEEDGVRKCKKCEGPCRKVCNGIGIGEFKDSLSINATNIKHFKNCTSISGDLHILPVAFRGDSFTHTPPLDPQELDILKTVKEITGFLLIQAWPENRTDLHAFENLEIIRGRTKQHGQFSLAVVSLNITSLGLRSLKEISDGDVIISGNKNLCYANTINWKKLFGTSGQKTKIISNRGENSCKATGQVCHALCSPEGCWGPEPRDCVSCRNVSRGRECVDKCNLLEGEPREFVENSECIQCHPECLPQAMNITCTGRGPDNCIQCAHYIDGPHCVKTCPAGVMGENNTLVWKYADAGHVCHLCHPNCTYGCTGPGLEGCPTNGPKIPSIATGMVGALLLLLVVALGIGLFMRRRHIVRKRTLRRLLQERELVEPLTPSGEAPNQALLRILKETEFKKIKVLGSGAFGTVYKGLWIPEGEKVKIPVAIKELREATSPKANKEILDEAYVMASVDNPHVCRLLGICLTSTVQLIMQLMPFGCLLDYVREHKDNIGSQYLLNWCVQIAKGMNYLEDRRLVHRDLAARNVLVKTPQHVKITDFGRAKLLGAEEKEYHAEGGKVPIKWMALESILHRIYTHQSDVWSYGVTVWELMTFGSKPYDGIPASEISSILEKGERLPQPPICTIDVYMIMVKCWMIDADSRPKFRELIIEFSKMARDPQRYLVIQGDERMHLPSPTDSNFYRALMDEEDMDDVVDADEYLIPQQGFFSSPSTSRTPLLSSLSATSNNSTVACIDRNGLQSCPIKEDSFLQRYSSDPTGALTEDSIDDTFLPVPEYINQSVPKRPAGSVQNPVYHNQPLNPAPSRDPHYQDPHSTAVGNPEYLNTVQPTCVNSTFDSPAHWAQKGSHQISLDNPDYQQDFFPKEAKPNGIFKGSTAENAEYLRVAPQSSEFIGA"}
{"smiles": "C=CC(=O)Nc1cc(Nc2n[nH]c3cc(-c4ccc5ccccc5c4)ccc23)c(OC)cc1N(C)CCN(C)C", "pIC50": 7.07}
{"smiles": "C=CC(=O)Nc1cc(Nc2n[nH]c3cc(-c4cccnc4)ccc23)c(OC)cc1N(C)CCN(C)C", "pIC50": 7.82}
{"smiles": "C=CC(=O)Nc1cc(Nc2n[nH]c3cc(-c4cccc(C(F)(F)F)c4)ccc23)c(OC)cc1N(C)CCN(C)C", "pIC50": 7.42}
{"smiles": "C=CC(=O)Nc1cc(Nc2n[nH]c3cc(-c4cccc(N(C)C)c4)ccc23)c(OC)cc1N(C)CCN(C)C", "pIC50": 7.66}
{"smiles": "C=CC(=O)Nc1cc(Nc2n[nH]c3cc(-c4ccc(F)cc4)ccc23)c(OC)cc1N(C)CCN(C)C", "pIC50": 8.00}
{"smiles": "CCC(=O)Nc1cc(Nc2n[nH]c3ccccc23)ccc1N(C)CCN(C)C", "pIC50": 5.01}
{"smiles": "C=CC(=O)Nc1cc(Nc2n[nH]c3ccccc23)c(OC)cc1N(C)CCN(C)C", "pIC50": 6.34}
{"smiles": "C=CC(=O)Nc1cc(Nc2n[nH]c3ccccc23)ccc1N(C)CCN(C)C", "pIC50": 5.58}
{"smiles": "C=CC(=O)Nc1cc(Nc2n[nH]c3ccc(-c4cccc5ccccc45)cc23)c(OC)cc1N(C)CCN(C)C", "pIC50": 8.57}
{"biological_target": "T1, Epidermal growth factor receptor (Homo sapiens, UniProt P00533)", "T1 sequence (P00533 whole entry)": "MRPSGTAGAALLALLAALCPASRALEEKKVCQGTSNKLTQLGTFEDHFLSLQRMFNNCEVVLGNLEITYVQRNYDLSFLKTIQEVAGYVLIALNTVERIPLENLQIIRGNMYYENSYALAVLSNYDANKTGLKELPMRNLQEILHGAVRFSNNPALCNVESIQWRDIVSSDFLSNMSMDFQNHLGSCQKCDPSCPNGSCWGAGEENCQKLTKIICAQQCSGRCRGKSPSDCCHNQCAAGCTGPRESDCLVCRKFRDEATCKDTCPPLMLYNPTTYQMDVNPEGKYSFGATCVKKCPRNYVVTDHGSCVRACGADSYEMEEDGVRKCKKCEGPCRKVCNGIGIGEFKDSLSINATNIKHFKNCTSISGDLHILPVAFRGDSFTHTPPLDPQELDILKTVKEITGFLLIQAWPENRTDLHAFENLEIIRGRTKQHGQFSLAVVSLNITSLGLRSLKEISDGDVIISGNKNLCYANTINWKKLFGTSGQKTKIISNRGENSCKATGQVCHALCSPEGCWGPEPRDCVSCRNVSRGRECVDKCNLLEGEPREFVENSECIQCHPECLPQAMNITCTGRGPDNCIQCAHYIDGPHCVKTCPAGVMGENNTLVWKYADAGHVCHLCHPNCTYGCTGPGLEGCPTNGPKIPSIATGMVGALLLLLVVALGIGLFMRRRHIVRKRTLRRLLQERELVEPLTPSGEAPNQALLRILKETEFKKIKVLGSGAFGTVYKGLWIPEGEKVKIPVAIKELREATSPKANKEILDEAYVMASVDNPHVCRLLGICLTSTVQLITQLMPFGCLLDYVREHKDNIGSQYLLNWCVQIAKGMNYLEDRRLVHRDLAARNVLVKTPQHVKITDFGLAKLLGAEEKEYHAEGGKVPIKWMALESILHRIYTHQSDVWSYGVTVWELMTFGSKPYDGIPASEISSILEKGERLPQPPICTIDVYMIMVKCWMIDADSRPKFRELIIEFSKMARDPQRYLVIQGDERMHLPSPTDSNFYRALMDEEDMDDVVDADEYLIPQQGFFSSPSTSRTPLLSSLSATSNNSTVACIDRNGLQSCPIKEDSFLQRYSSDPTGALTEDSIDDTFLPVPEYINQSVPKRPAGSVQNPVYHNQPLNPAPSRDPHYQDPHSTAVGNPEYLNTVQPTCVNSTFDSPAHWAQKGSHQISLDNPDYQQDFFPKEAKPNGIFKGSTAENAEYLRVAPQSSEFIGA", "experiment": "Inhibition of wild-type EGFR in human A431 cells assessed as reduction in cell viability after 96 hrs by CellTiterGlo assay", "assay_type": "ADME, cell-based"}
{"smiles": "C=CC(=O)Nc1cc(Nc2n[nH]c3cc(-c4ccc5ccccc5c4)ccc23)c(OC)cc1N(C)CCN(C)C", "pEC50": 5.78}
{"smiles": "C=CC(=O)Nc1cc(Nc2n[nH]c3cc(-c4cccnc4)ccc23)c(OC)cc1N(C)CCN(C)C", "pEC50": 5.25}
{"smiles": "C=CC(=O)Nc1cc(Nc2n[nH]c3cc(-c4cccc(C(F)(F)F)c4)ccc23)c(OC)cc1N(C)CCN(C)C", "pEC50": 5.45}
{"smiles": "C=CC(=O)Nc1cc(Nc2n[nH]c3cc(-c4cccc(N(C)C)c4)ccc23)c(OC)cc1N(C)CCN(C)C", "pEC50": 5.46}
{"smiles": "C=CC(=O)Nc1cc(Nc2n[nH]c3cc(-c4ccc(F)cc4)ccc23)c(OC)cc1N(C)CCN(C)C", "pEC50": 5.66}
{"smiles": "CCC(=O)Nc1cc(Nc2n[nH]c3ccccc23)ccc1N(C)CCN(C)C", "pEC50": "< 4.52"}
{"smiles": "C=CC(=O)Nc1cc(Nc2n[nH]c3ccccc23)c(OC)cc1N(C)CCN(C)C", "pEC50": 4.98}
{"smiles": "C=CC(=O)Nc1cc(Nc2n[nH]c3ccccc23)ccc1N(C)CCN(C)C", "pEC50": 5.22}
{"smiles": "C=CC(=O)Nc1cc(Nc2n[nH]c3ccc(-c4cccc5ccccc45)cc23)c(OC)cc1N(C)CCN(C)C", "pEC50": 5.56}
{"biological_target": "T1, Epidermal growth factor receptor", "assay_type": "ADME"}
{"smiles": "C=CC(=O)Nc1cc(Nc2n[nH]c3cc(-c4ccc5ccccc5c4)ccc23)c(OC)cc1N(C)CCN(C)C", "pIC50": 6.51}
{"smiles": "C=CC(=O)Nc1cc(Nc2n[nH]c3cc(-c4cccnc4)ccc23)c(OC)cc1N(C)CCN(C)C", "pIC50": 7.01}
{"smiles": "C=CC(=O)Nc1cc(Nc2n[nH]c3cc(-c4cccc(C(F)(F)F)c4)ccc23)c(OC)cc1N(C)CCN(C)C", "pIC50": 7.80}
{"smiles": "C=CC(=O)Nc1cc(Nc2n[nH]c3cc(-c4cccc(N(C)C)c4)ccc23)c(OC)cc1N(C)CCN(C)C", "pIC50": 7.32}
{"smiles": "C=CC(=O)Nc1cc(Nc2n[nH]c3cc(-c4ccc(F)cc4)ccc23)c(OC)cc1N(C)CCN(C)C", "pIC50": 7.59}
{"smiles": "CCC(=O)Nc1cc(Nc2n[nH]c3ccccc23)ccc1N(C)CCN(C)C", "pIC50": "< 5.00"}
{"smiles": "C=CC(=O)Nc1cc(Nc2n[nH]c3ccccc23)c(OC)cc1N(C)CCN(C)C", "pIC50": 5.03}
{"smiles": "C=CC(=O)Nc1cc(Nc2n[nH]c3ccccc23)ccc1N(C)CCN(C)C", "pIC50": "< 5.00"}
{"smiles": "C=CC(=O)Nc1cc(Nc2n[nH]c3ccc(-c4cccc5ccccc45)cc23)c(OC)cc1N(C)CCN(C)C", "pIC50": 7.48}
{"biological_target": "Epidermal growth factor receptor (Homo sapiens, UniProt P00533, L858R)", "sequence (P00533 25-1210 L858R limits assumed)": "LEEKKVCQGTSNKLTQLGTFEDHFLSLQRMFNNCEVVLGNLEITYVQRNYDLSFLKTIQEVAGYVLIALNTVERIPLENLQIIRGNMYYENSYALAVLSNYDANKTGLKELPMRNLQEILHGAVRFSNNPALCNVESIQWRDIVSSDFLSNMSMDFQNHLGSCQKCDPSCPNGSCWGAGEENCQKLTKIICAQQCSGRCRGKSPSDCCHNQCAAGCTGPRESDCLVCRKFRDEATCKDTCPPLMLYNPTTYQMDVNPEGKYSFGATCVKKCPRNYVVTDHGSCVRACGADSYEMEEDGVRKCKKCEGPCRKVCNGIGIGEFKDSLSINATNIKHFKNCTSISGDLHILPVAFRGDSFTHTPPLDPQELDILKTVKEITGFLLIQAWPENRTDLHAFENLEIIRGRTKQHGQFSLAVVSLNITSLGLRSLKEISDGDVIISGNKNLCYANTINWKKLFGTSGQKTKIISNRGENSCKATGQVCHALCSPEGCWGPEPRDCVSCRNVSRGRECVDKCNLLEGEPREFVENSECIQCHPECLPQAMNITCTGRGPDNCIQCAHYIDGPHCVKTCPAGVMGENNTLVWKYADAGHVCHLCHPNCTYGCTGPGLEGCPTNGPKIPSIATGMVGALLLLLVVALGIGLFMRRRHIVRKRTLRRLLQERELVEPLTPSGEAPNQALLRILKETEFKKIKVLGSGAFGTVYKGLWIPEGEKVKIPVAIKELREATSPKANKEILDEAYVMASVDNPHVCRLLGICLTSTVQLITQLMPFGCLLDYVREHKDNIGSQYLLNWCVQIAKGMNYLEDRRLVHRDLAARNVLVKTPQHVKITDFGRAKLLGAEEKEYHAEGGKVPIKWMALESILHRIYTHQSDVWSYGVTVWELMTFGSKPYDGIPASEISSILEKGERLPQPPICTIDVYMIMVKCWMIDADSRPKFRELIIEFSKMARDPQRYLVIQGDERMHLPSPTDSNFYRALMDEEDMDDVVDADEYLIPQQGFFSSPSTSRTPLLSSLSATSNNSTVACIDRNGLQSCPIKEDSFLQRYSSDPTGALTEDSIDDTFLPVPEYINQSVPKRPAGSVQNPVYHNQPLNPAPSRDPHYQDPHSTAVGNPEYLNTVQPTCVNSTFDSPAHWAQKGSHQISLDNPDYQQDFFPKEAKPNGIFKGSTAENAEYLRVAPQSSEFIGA"}
{"smiles": "C=CC(=O)Nc1cc(Nc2n[nH]c3cc(-c4ccc5ccccc5c4)ccc23)c(OC)cc1N(C)CCN(C)C", "pIC50": 7.60}
{"smiles": "C=CC(=O)Nc1cc(Nc2n[nH]c3cc(-c4cccnc4)ccc23)c(OC)cc1N(C)CCN(C)C", "pIC50": 7.54}
{"smiles": "C=CC(=O)Nc1cc(Nc2n[nH]c3cc(-c4cccc(C(F)(F)F)c4)ccc23)c(OC)cc1N(C)CCN(C)C", "pIC50": 8.35}
{"smiles": "C=CC(=O)Nc1cc(Nc2n[nH]c3cc(-c4cccc(N(C)C)c4)ccc23)c(OC)cc1N(C)CCN(C)C", "pIC50": 8.00}
{"smiles": "C=CC(=O)Nc1cc(Nc2n[nH]c3cc(-c4ccc(F)cc4)ccc23)c(OC)cc1N(C)CCN(C)C", "pIC50": 8.07}
{"smiles": "CCC(=O)Nc1cc(Nc2n[nH]c3ccccc23)ccc1N(C)CCN(C)C", "pIC50": 5.07}
{"smiles": "C=CC(=O)Nc1cc(Nc2n[nH]c3ccccc23)c(OC)cc1N(C)CCN(C)C", "pIC50": 5.47}
{"smiles": "C=CC(=O)Nc1cc(Nc2n[nH]c3ccccc23)ccc1N(C)CCN(C)C", "pIC50": "< 5.00"}
{"smiles": "C=CC(=O)Nc1cc(Nc2n[nH]c3ccc(-c4cccc5ccccc45)cc23)c(OC)cc1N(C)CCN(C)C", "pIC50": 7.92}
